Assay results published in patent US20210369853A1, “TARGETED PROTEASE DEGRADATION PLATFORM” (EUBULUS BIOTHERAPEUTICS INC., priority 2018, published 2021).

What was measured:
[1] = test system: Human Monocytic Leukemia MV4-11; test: Cell proliferation experiment (Alarm blue, 72 h, EC50); assay type: cell-based; settings: Homo sapiens, MV4-11, MV4;11 cells
In short: (§1)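 EC50 values derive from Alamar blue fluorescence measured after cells in 96-well plates were incubated 72 h with compound diluted 5-fold per step in complete medium.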

[2] = test system: Human Colon Cancer HCT-116; test: as above; assay type: cell-based; settings: Homo sapiens, HCT-116; HCT116 cells
In short: as §1

EC50 [1] | EC50 [2] | Compound
100 to 1000 nM | > 1000 nM | Cc1sc2c(c1C)C(c1ccc(Cl)cc1)=N[C@@H](CC(=O)NCCCNCCCC(=O)Nc1cccc3c1CN(C1CCC(=O)NC1=O)C3=O)c1nnc(C)n1-2 (some centres unmarked) [UB-180640]
– | > 1000 nM | Cc1sc2c(c1C)C(c1ccc(Cl)cc1)=N[C@@H](CC(=O)NCCOCCOCCOCCNCCC(=O)Nc1cccc3c1CN(C1CCC(=O)NC1=O)C3=O)c1nnc(C)n1-2 (some centres unmarked) [UB-180635]
< 10 nM | 100 to 1000 nM | CC[C@@H]1C(=O)N(C)c2cnc(Nc3ccc(C(=O)NC4CCN(CCOCCN(CC)CC(=O)Nc5cccc6c5CN(C5CCC(=O)NC5=O)C6=O)CC4)cc3OC)nc2N1C1CCCC1 (some centres unmarked) [UB-180828]
100 to 1000 nM | > 1000 nM | Cc1sc2c(c1C)C(c1ccc(Cl)cc1)=N[C@@H](CC(=O)NCCCNCCCCCC(=O)Nc1cccc3c1CN(C1CCC(=O)NC1=O)C3=O)c1nnc(C)n1-2 (some centres unmarked) [UB-180642]
– | > 1000 nM | Cc1sc2c(c1C)C(c1ccc(Cl)cc1)=N[C@@H](CC(=O)NCCOCCOCCOCCNCCCC(=O)Nc1cccc3c1CN(C1CCC(=O)NC1=O)C3=O)c1nnc(C)n1-2 (some centres unmarked) [UB-180648]
> 1000 nM | – | O=C1CCC(N2Cc3c(NC(=O)CCCCNCCOCCOCCOCCNC(=O)[C@]4(Cc5cccc(Nc6nccs6)n5)CC[C@@H](Oc5cccc(Cl)c5F)CC4)cccc3C2=O)C(=O)N1 (some centres unmarked) [UB-180778]
> 1000 nM | – | Cc1ncsc1-c1ccc(CNC(=O)[C@@H]2C[C@@H](O)CN2C(=O)[C@@H](NC(=O)CCNCCOCCOCCOCCNC(=O)c2ccc(Nc3ncc4c(n3)-c3ccc(Cl)cc3C(c3c(F)cccc3F)=NC4)cc2)C(C)(C)C)cc1 [UB-180780]
< 10 nM | – | CC[C@@H]1C(=O)N(C)c2cnc(Nc3ccc(C(=O)NCc4cn(CCN(C)CCCC(=O)Nc5cccc6c5CN(C5CCC(=O)NC5=O)C6=O)nn4)cc3OC)nc2N1C1CCCC1 (some centres unmarked) [UB-180716]
100 to 1000 nM | – | O=C1CCC(N2Cc3c(NC(=O)CCNCCOCCOCCOCCOCCNC(=O)c4ccc(Nc5ncc6c(n5)-c5ccc(Cl)cc5C(c5c(F)cccc5F)=NC6)cc4)cccc3C2=O)C(=O)N1 (centres unmarked) [UB-180807]
10 to 100 nM | – | CC[C@@H]1C(=O)N(C)c2cnc(Nc3ccc(C(=O)NC4CCN(CCOCCN(CC(=O)Nc5cccc6c5CN(C5CCC(=O)NC5=O)C6=O)C(N)=O)CC4)cc3OC)nc2N1C1CCCC1 (some centres unmarked) [UB-180840]
10 to 100 nM | – | CC[C@@H]1C(=O)N(C)c2cnc(Nc3ccc(C(=O)NCc4cn(CCNCCOCC(=O)Nc5cccc6c5CN(C5CCC(=O)NC5=O)C6=O)nn4)cc3OC)nc2N1Cc1ccc(C#N)s1 (some centres unmarked) [UB-180765]
10 to 100 nM | – | CC[C@@H]1C(=O)N(C)c2cnc(Nc3ccc(C(=O)NC4CCN(CCNCCCC(=O)Nc5cccc6c5CN(C5CCC(=O)NC5=O)C6=O)CC4)cc3OC)nc2N1C1CCCC1 (some centres unmarked) [UB-180687]
100 to 1000 nM | – | O=C1CCC(N2Cc3c(NC(=O)CNCCOCCOCCNC(=O)c4ccc(Nc5ncc6c(n5)-c5ccc(Cl)cc5C(c5c(F)cccc5F)=NC6)cc4)cccc3C2=O)C(=O)N1 (centres unmarked) [UB-180809]
> 1000 nM | – | O=C1CCC(N2Cc3c(NC(=O)CCCCNCCOCCOCCOCCNC(=O)c4ccc(Nc5ncc6c(n5)-c5ccc(Cl)cc5C(c5c(F)cccc5F)=NC6)cc4)cccc3C2=O)C(=O)N1 (centres unmarked) [UB-180772]
10 to 100 nM | – | CC[C@@H]1C(=O)N(C)c2cnc(Nc3ccc(C(=O)NC4CCN(CCNCCCC(=O)Nc5cccc6c5CN(C5CCC(=O)NC5=O)C6=O)CC4)cc3OC)nc2N1Cc1ccc(Br)cc1 (some centres unmarked) [UB-180688]
100 to 1000 nM | – | CC[C@@H]1C(=O)N(C)c2cnc(Nc3ccc(C(=O)NCCOCCOCCOCCN(CCC(=O)Nc4cccc5c4CN(C4CCC(=O)NC4=O)C5=O)C(=O)OCc4ccc(NC(=O)[C@H](CCCNC(N)=O)NC(=O)[C@@H](NC(=O)CCCCCN5C(=O)C=CC5=O)C(C)C)cc4)cc3OC)nc2N1C1CCCC1 (some centres unmarked) [UB-180709]
> 1000 nM | – | Cc1ncsc1-c1ccc(CNC(=O)[C@@H]2C[C@@H](O)CN2C(=O)[C@@H](NC(=O)CCNCCn2cc(COCCOCCNC(=O)c3ccc(Nc4ncc5c(n4)-c4ccc(Cl)cc4C(c4c(F)cccc4F)=NC5)cc3)nn2)C(C)(C)C)cc1 [UB-180786]
100 to 1000 nM | – | O=C1CCC(N2Cc3c(NC(=O)CCOCCOCCOCCNCCOCCNC(=O)c4ccc(Nc5ncc6c(n5)-c5ccc(Cl)cc5C(c5c(F)cccc5F)=NC6)cc4)cccc3C2=O)C(=O)N1 (centres unmarked) [UB-180803]

Second part, the compound before the results:

Compound | EC50 [1] | EC50 [2]
O=C1CCC(N2Cc3c(NC(=O)COCCOCCOCCNC(=O)c4ccc(Nc5ncc6c(n5)-c5ccc(Cl)cc5C(c5c(F)cccc5F)=NC6)cc4)cccc3C2=O)C(=O)N1 (centres unmarked) [UB-180520] | 10 to 100 nM | > 1000 nM
O=C1CCC(N2Cc3c(NC(=O)CCCNC(=O)c4ccc(Nc5ncc6c(n5)-c5ccc(Cl)cc5C(c5c(F)cccc5F)=NC6)cc4)cccc3C2=O)C(=O)N1 (centres unmarked) [UB-180501] | > 1000 nM | 100 to 1000 nM
O=C1CCC(N2Cc3c(NC(=O)COCCOCCOCCOCCNC(=O)[C@]4(Cc5cccc(Nc6nccs6)n5)CC[C@@H](Oc5cccc(Cl)c5F)CC4)cccc3C2=O)C(=O)N1 (some centres unmarked) [UB-180582] | 10 to 100 nM | > 1000 nM
O=C1CCC(N2Cc3c(NC(=O)CCOCCOCCOCCOCCNC(=O)[C@]4(Cc5cccc(Nc6nccs6)n5)CC[C@@H](Oc5cccc(Cl)c5F)CC4)cccc3C2=O)C(=O)N1 (some centres unmarked) [UB-180575] | 10 to 100 nM | > 1000 nM
O=C1CCC(N2Cc3c(NC(=O)CCOCCCOCCOCCNC(=O)[C@]4(Cc5cccc(Nc6nccs6)n5)CC[C@@H](Oc5cccc(Cl)c5F)CC4)cccc3C2=O)C(=O)N1 (some centres unmarked) [UB-180611] | 10 to 100 nM | > 1000 nM
O=C1CCC(N2Cc3c(NC(=O)CCOCCOCCNC(=O)[C@]4(Cc5cccc(Nc6nccs6)n5)CC[C@@H](Oc5cccc(Cl)c5F)CC4)cccc3C2=O)C(=O)N1 (some centres unmarked) [UB-180590] | > 1000 nM | > 1000 nM
O=C1CCC(N2Cc3c(NC(=O)CCNC(=O)[C@]4(Cc5cccc(Nc6nccs6)n5)CC[C@@H](Oc5cccc(Cl)c5F)CC4)cccc3C2=O)C(=O)N1 (some centres unmarked) [UB-180616] | > 1000 nM | > 1000 nM
O=C1CCC(N2Cc3c(NC(=O)COCCNC(=O)c4ccc(Nc5ncc6c(n5)-c5ccc(Cl)cc5C(c5c(F)cccc5F)=NC6)cc4)cccc3C2=O)C(=O)N1 (centres unmarked) [UB-180509] | > 1000 nM | > 1000 nM
O=C1CCC(N2Cc3c(NC(=O)COCCOCCNC(=O)[C@]4(Cc5cccc(Nc6nccs6)n5)CC[C@@H](Oc5cccc(Cl)c5F)CC4)cccc3C2=O)C(=O)N1 (some centres unmarked) [UB-180572] | > 1000 nM | > 1000 nM
O=C1CCC(N2Cc3c(NC(=O)COCCOCCOCCOCCNC(=O)c4ccc(Nc5ncc6c(n5)-c5ccc(Cl)cc5C(c5c(F)cccc5F)=NC6)cc4)cccc3C2=O)C(=O)N1 (centres unmarked) [UB-180534] | 10 to 100 nM | > 1000 nM
O=C1CCC(N2Cc3c(NC(=O)COCCCCNC(=O)[C@]4(Cc5cccc(Nc6nccs6)n5)CC[C@@H](Oc5cccc(Cl)c5F)CC4)cccc3C2=O)C(=O)N1 (some centres unmarked) [UB-180586] | > 1000 nM | > 1000 nM
O=C1CCC(N2Cc3c(NC(=O)COCCCNC(=O)c4ccc(Nc5ncc6c(n5)-c5ccc(Cl)cc5C(c5c(F)cccc5F)=NC6)cc4)cccc3C2=O)C(=O)N1 (centres unmarked) [UB-180502] | 10 to 100 nM | 100 to 1000 nM
O=C1CCC(N2Cc3c(NC(=O)CCOCCOCCOCCOCCNC(=O)c4ccc(Nc5ncc6c(n5)-c5ccc(Cl)cc5C(c5c(F)cccc5F)=NC6)cc4)cccc3C2=O)C(=O)N1 (centres unmarked) [UB-180530] | 10 to 100 nM | > 1000 nM
O=C1CCC(N2Cc3c(NC(=O)COCCCNC(=O)[C@]4(Cc5cccc(Nc6nccs6)n5)CC[C@@H](Oc5cccc(Cl)c5F)CC4)cccc3C2=O)C(=O)N1 (some centres unmarked) [UB-180588] | > 1000 nM | > 1000 nM
O=C1CCC(N2Cc3c(NC(=O)COCCOCCOCCNC(=O)[C@]4(Cc5cccc(Nc6nccs6)n5)CC[C@@H](Oc5cccc(Cl)c5F)CC4)cccc3C2=O)C(=O)N1 (some centres unmarked) [UB-180573] | > 1000 nM | > 1000 nM
Cc1sc2c(c1C)C(c1ccc(Cl)cc1)=N[C@@H](CC(=O)NCCCNCCCCCCCC(=O)Nc1cccc3c1CN(C1CCC(=O)NC1=O)C3=O)c1nnc(C)n1-2 (some centres unmarked) [UB-180630] | 100 to 1000 nM | > 1000 nM
Cc1ncsc1-c1ccc(CNC(=O)[C@@H]2C[C@@H](O)CN2C(=O)[C@@H](NC(=O)COCCOCCNC(=O)c2ccc(Nc3ncc4c(n3)-c3ccc(Cl)cc3C(c3c(F)cccc3F)=NC4)cc2)C(C)(C)C)cc1 [UB-180533] | 100 to 1000 nM | –
Cc1ncsc1-c1ccc(CNC(=O)[C@@H]2C[C@@H](O)CN2C(=O)[C@@H](NC(=O)CCOCCOCCOCCOCCNC(=O)c2ccc(Nc3ncc4c(n3)-c3ccc(Cl)cc3C(c3c(F)cccc3F)=NC4)cc2)C(C)(C)C)cc1 [UB-180531] | 10 to 100 nM | –
Cc1ncsc1-c1ccc(CNC(=O)[C@@H]2C[C@@H](O)CN2C(=O)[C@@H](NC(=O)CCOCCCOCCOCCNC(=O)c2ccc(Nc3ncc4c(n3)-c3ccc(Cl)cc3C(c3c(F)cccc3F)=NC4)cc2)C(C)(C)C)cc1 [UB-180609] | 10 to 100 nM | –
CC[C@@H]1C(=O)N(C)c2cnc(Nc3ccc(C(=O)NCCOCCOCCOCCNc4cccc5c4CN(C4CCC(=O)NC4=O)C5=O)cc3OC)nc2N1Cc1ccc(Br)cc1 (some centres unmarked) [UB-180569] | 10 to 100 nM | –
Cc1ncsc1-c1ccc(CNC(=O)[C@@H]2C[C@@H](O)CN2C(=O)[C@@H](NC(=O)COCCCNC(=O)c2ccc(Nc3ncc4c(n3)-c3ccc(Cl)cc3C(c3c(F)cccc3F)=NC4)cc2)C(C)(C)C)cc1 [UB-180506] | 100 to 1000 nM | –
Cc1ncsc1-c1ccc(CNC(=O)[C@@H]2C[C@@H](O)CN2C(=O)[C@@H](NC(=O)COCCCNC(=O)[C@]2(Cc3cccc(Nc4nccs4)n3)CC[C@@H](Oc3cccc(Cl)c3F)CC2)C(C)(C)C)cc1 [UB-180585] | > 1000 nM | –
Cc1ncsc1-c1ccc(CNC(=O)[C@@H]2C[C@@H](O)CN2C(=O)[C@@H](NC(=O)CCNC(=O)[C@]2(Cc3cccc(Nc4nccs4)n3)CC[C@@H](Oc3cccc(Cl)c3F)CC2)C(C)(C)C)cc1 [UB-180614] | > 1000 nM | –
Cc1ncsc1-c1ccc(CNC(=O)[C@@H]2C[C@@H](O)CN2C(=O)[C@@H](NC(=O)COCCOCCOCCNC(=O)[C@]2(Cc3cccc(Nc4nccs4)n3)CC[C@@H](Oc3cccc(Cl)c3F)CC2)C(C)(C)C)cc1 [UB-180584] | 100 to 1000 nM | –
Cc1ncsc1-c1ccc(CNC(=O)[C@@H]2C[C@@H](O)CN2C(=O)[C@@H](NC(=O)CCCNC(=O)c2ccc(Nc3ncc4c(n3)-c3ccc(Cl)cc3C(c3c(F)cccc3F)=NC4)cc2)C(C)(C)C)cc1 [UB-180505] | 100 to 1000 nM | –
